The text below walks through data of patent US20240018133A1, “MODULATORS OF THE INTEGRATED STRESS PATHWAY” (Calico Life Sciences LLC, priority 2019, published 2024).

Where only a bound is given, the exact number is not on record here.

The subject of this test is ATF4 luciferase reporter (human full-length ATF4 5'-UTR fused to firefly luciferase) in HEK293T cells. The test is described as follows: ATF4-Luc assay (in vitro model of VWMD): HEK293T cells carrying ATF4 luciferase reporter, tunicamycin-treated. Format: cell-based. As to conditions: Homo sapiens, HEK-293T, 1 μg/mL tunicamycin, 7 hours, One Glo luminescence. Put shortly: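 Reporter cells were stably generated by retroviral transduction and puromycin selection, then seeded at 30,000 cells/well. Next day, cells received 1 μg/mL tunicamycin with 200 nM test compound for 7 h, and luciferase luminescence was read with a one-step reagent. Values reported as EC50.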

A word on the EC50: it is the midpoint of the concentration-response curve. Turning to `O=C(COc1ccc(Cl)c(F)c1)NC12CC(NC(=O)C3COc4cc(Cl)ccc4C3)(C1)C2` (stereo not shown) [Compound 345, 7-chloro-N-{3-[2-(4-chloro-3-fluorophenoxy)acetamido]bicyclo[1.1.1]pentan-1-yl}-3,4-dihydro-2H-1-benzopyran-3-carboxamide], the EC50 was above 2000 nM.

Regarding `O=C(COc1ccc(Cl)c(F)c1)NC12CC(NC(=O)c3cc(=O)c4cc(O)ccc4o3)(C1)C2` [Compound 346, N-{3-[2-(4-chloro-3-fluorophenoxy)acetamido]bicyclo[1.1.1]pentan-1-yl}-6-hydroxy-4-oxo-4H-1-benzopyran-2-carboxamide], the EC50 is 500 to 2000 nM.

For the compound `Cc1cc2c(cc1F)C(O)CC(C(=O)NC13CC(NC(=O)COc4ccc(Cl)c(F)c4)(C1)C3)O2` (stereo not shown) [Compound 347, N-{3-[2-(4-chloro-3-fluorophenoxy)acetamido]bicyclo[1.1.1]pentan-1-yl}-6-fluoro-4-hydroxy-7-methyl-3,4-dihydro-2H-1-benzopyran-2-carboxamide], the EC50 was below 10 nM.

On to `CC(C)(O)CN1C[C@@H](C(=O)NC23CC(NC(=O)COc4ccc(Cl)c(F)c4)(C2)C3)Oc2ccc(Cl)cc21` [Compound 348, (2S)-6-chloro-N-{3-[2-(4-chloro-3-fluorophenoxy)acetamido]bicyclo[1.1.1]pentan-1-yl}-4-(2-hydroxy-2-methylpropyl)-3,4-dihydro-2H-1,4-benzoxazine-2-carboxamide], for which the EC50 was in the range of 50 to 250 nM.

As for `O=C(COc1ccc(Cl)c(F)c1)NC12CC(NC(=O)C3CC(NC4COC4)c4cc(Cl)ccc4O3)(C1)C2` (stereo not shown) [Compound 349, 6-chloro-N-{3-[2-(4-chloro-3-fluorophenoxy)acetamido]bicyclo[1.1.1]pentan-1-yl}-4-[(oxetan-3-yl)amino]-3,4-dihydro-2H-1-benzopyran-2-carboxamide], the EC50 was 10 to 50 nM.

Consider `O=C(COc1ccc(Cl)c(F)c1)NC12CC(NC(=O)C3(F)CC(O)c4cc(Cl)ccc4O3)(C1)C2` (stereo not shown) [Compound 350, 6-chloro-N-{3-[2-(4-chloro-3-fluorophenoxy)acetamido]bicyclo[1.1.1]pentan-1-yl}-2-fluoro-4-hydroxy-3,4-dihydro-2H-1-benzopyran-2-carboxamide], for which the EC50 is below 10 nM.

As for `O=C(COc1cc(F)c2cn[nH]c2c1)NC12CC(NC(=O)[C@H]3C[C@@H](O)c4cc(Cl)ccc4O3)(C1)C2` [Compound 351, (2R,4R)-6-chloro-N-(3-{2-[(4-fluoro-1H-indazol-6-yl)oxy]acetamido}bicyclo[1.1.1]pentan-1-yl)-4-hydroxy-3,4-dihydro-2H-1-benzopyran-2-carboxamide], the EC50 is below 10 nM.

`O=C(NC12CCC(NC(=O)[C@H]3CC(=O)c4cc(Cl)ccc4O3)(CC1)C[C@@H]2O)c1cnc(C(F)F)cn1` [Compound 352, N-[(2S)-4-{[(2R)-6-chloro-4-oxo-3,4-dihydro-2H-1-benzopyran-2-carbonyl]amino}-2-hydroxybicyclo[2.2.2]octan-1-yl]-5-(difluoromethyl)pyrazine-2-carboxamide]: the EC50 lay in the range of 500 to 2000 nM.

For the compound `O=C(NC12CCC(NC(=O)[C@H]3C[C@@H](O)c4cc(Cl)ccc4O3)(CC1)C[C@@H]2O)c1cnc(C(F)F)cn1` [Compound 353, N-[(2S)-4-{[(2R,4R)-6-chloro-4-hydroxy-3,4-dihydro-2H-1-benzopyran-2-carbonyl]amino}-2-hydroxybicyclo[2.2.2]octan-1-yl]-5-(difluoromethyl)pyrazine-2-carboxamide], the EC50 is 50 to 250 nM.

With `O=C(COc1cc(F)c2cn[nH]c2c1)NC12CCC(NC(=O)[C@H]3C[C@@H](O)c4cc(Cl)ccc4O3)(CC1)[C@@H](O)C2` [Compound 355, (2R,4R)-6-chloro-N-[(2S)-4-{2-[(4-fluoro-1H-indazol-6-yl)oxy]acetamido}-2-hydroxybicyclo[2.2.2]octan-1-yl]-4-hydroxy-3,4-dihydro-2H-1-benzopyran-2-carboxamide], the EC50 is below 10 nM.

Take `Cc1csc(C(=O)NC23CCC(NC(=O)[C@H]4C[C@@H](O)c5cc(Cl)ccc5O4)(CC2)C[C@@H]3O)n1` [Compound 356, N-[(2S)-4-{[(2R,4R)-6-chloro-4-hydroxy-3,4-dihydro-2H-1-benzopyran-2-carbonyl]amino}-2-hydroxybicyclo[2.2.2]octan-1-yl]-4-methyl-1,3-thiazole-2-carboxamide]: the EC50 is 50 to 250 nM.

Regarding `O=C(NC12CCC(NC(=O)[C@H]3CC(=O)c4cc(Cl)ccc4O3)(CC1)CC2)c1ccc(OC(F)(F)F)cn1` [Compound 357, N-(4-{[(2R)-6-chloro-4-oxo-3,4-dihydro-2H-1-benzopyran-2-carbonyl]amino}bicyclo[2.2.2]octan-1-yl)-5-(trifluoromethoxy)pyridine-2-carboxamide], the EC50 lay within 500 to 2000 nM.

As for `O=C(NC12CCC(NC(=O)[C@@H]3CC(=O)c4cc(Cl)ccc4O3)(CC1)CC2)c1ccc(OC(F)(F)F)cn1` [Compound 358, N-(4-{[(2S)-6-chloro-4-oxo-3,4-dihydro-2H-1-benzopyran-2-carbonyl]amino}bicyclo[2.2.2]octan-1-yl)-5-(trifluoromethoxy)pyridine-2-carboxamide], the EC50 is above 2000 nM.

Turning to `Cc1cc(OCC(=O)NC23CC(NC(=O)[C@H]4C[C@@H](O)c5cc(F)c(F)cc5O4)(C2)C3)ccc1F` [Compound 359, (2R,4R)-6,7-difluoro-N-{3-[2-(4-fluoro-3-methylphenoxy)acetamido]bicyclo[1.1.1]pentan-1-yl}-4-hydroxy-3,4-dihydro-2H-1-benzopyran-2-carboxamide], the half-maximal effective concentration (EC50) was below 10 nM.

With `Cc1cc(OCC(=O)NC23CC(NC(=O)[C@@H]4C[C@H](O)c5cc(Cl)ccc5O4)(C2)C3)ccc1F` [Compound 360, (2S,4S)-6-chloro-N-{3-[2-(4-fluoro-3-methylphenoxy)acetamido]bicyclo[1.1.1]pentan-1-yl}-4-hydroxy-3,4-dihydro-2H-1-benzopyran-2-carboxamide], the EC50 lay within 10 to 50 nM.

Turning to `O=C(NC12CCC(NC(=O)[C@H]3C[C@@H](O)c4cc(Cl)ccc4O3)(CC1)CC2)c1ccc(OC(F)(F)F)cn1` [Compound 361, N-(4-{[(2R,4R)-6-chloro-4-hydroxy-3,4-dihydro-2H-1-benzopyran-2-carbonyl]amino}bicyclo[2.2.2]octan-1-yl)-5-(trifluoromethoxy)pyridine-2-carboxamide], the EC50 lay within 50 to 250 nM.

On to `O=C(NC12CCC(NC(=O)[C@@H]3C[C@H](O)c4cc(Cl)ccc4O3)(CC1)CC2)c1ccc(OC(F)(F)F)cn1` [Compound 362, N-(4-{[(2S,4S)-6-chloro-4-hydroxy-3,4-dihydro-2H-1-benzopyran-2-carbonyl]amino}bicyclo[2.2.2]octan-1-yl)-5-(trifluoromethoxy)pyridine-2-carboxamide], for which the EC50 lay within 500 to 2000 nM.

For `O=C(COc1ccc(Cl)c(F)c1)NC12CCC(NC(=O)C3CC(=O)c4cc(Cl)ccc4O3)(CC1)NC2=O` (stereo not shown) [Compound 363, 6-chloro-N-{4-[2-(4-chloro-3-fluorophenoxy)acetamido]-3-oxo-2-azabicyclo[2.2.2]octan-1-yl}-4-oxo-3,4-dihydro-2H-1-benzopyran-2-carboxamide], the EC50 fell in the range of 10 to 50 nM.

With `O=C(COc1ccc(Cl)c(F)c1)NC12CC(NC(=O)[C@H]3C[C@H](O)c4cc(Cl)c(F)cc4O3)(C1)C2` [Compound 367, (2R,4S)-6-chloro-N-{3-[2-(4-chloro-3-fluorophenoxy)acetamido]bicyclo[1.1.1]pentan-1-yl}-7-fluoro-4-hydroxy-3,4-dihydro-2H-1-benzopyran-2-carboxamide], the EC50 is below 10 nM.

`O=C(NC12CCC(NC(=O)[C@H]3C[C@@H](O)c4cc(Cl)ccc4O3)(C1)C2)c1ccc(OC(F)(F)F)cn1` [Compound 373, N-(4-{[(2R,4R)-6-chloro-4-hydroxy-3,4-dihydro-2H-1-benzopyran-2-carbonyl]amino}bicyclo[2.1.1]hexan-1-yl)-5-(trifluoromethoxy)pyridine-2-carboxamide]: the EC50 is 10 to 50 nM.

As to `O=C(NC12CCC(NC(=O)[C@H]3C[C@@H](O)c4cc(Cl)ccc4O3)(C1)C2)c1ccc(C(F)(F)F)cc1` [Compound 374, (2R,4R)-6-chloro-4-hydroxy-N-{4-[4-(trifluoromethyl)benzamido]bicyclo[2.1.1]hexan-1-yl}-3,4-dihydro-2H-1-benzopyran-2-carboxamide], the EC50 is 250 to 500 nM.

On to `O=C(COc1ccc(Cl)c(F)c1)N[C@@H]1C[C@@H]2O[C@H]1C[C@H]2NC(=O)[C@H]1C[C@@H](O)c2cc(Cl)ccc2O1` [Compound 375, (2R,4R)-6-chloro-N-{(1S,2R,4S,5R)-5-[2-(4-chloro-3-fluorophenoxy)acetamido]-7-oxabicyclo[2.2.1]heptan-2-yl}-4-hydroxy-3,4-dihydro-2H-1-benzopyran-2-carboxamide], for which the EC50 was below 10 nM.

Turning to `O=C(NC12CC(NC(=O)[C@H]3C[C@@H](O)c4cc(Cl)ccc4O3)(C1)C2)c1ccc(OC(F)(F)F)cn1` [Compound 376, N-(3-{[(2R,4R)-6-chloro-4-hydroxy-3,4-dihydro-2H-1-benzopyran-2-carbonyl]amino}bicyclo[1.1.1]pentan-1-yl)-5-(trifluoromethoxy)pyridine-2-carboxamide], the EC50 was in the range of 10 to 50 nM.

`O=C(NC12CC(NC(=O)[C@H]3C[C@@H](O)c4cc(Cl)ccc4O3)(C1)C2)c1ccc(OC(F)(F)F)nc1` [Compound 377, N-(3-{[(2R,4R)-6-chloro-4-hydroxy-3,4-dihydro-2H-1-benzopyran-2-carbonyl]amino}bicyclo[1.1.1]pentan-1-yl)-6-(trifluoromethoxy)pyridine-3-carboxamide]: the EC50 lay within 50 to 250 nM.

As to `O=C(NC12CC(NC(=O)[C@H]3C[C@@H](O)c4cc(Cl)ccc4O3)(C1)C2)c1ccc(Cl)c(F)c1` [Compound 378, (2R,4R)-6-chloro-N-[3-(4-chloro-3-fluorobenzamido)bicyclo[1.1.1]pentan-1-yl]-4-hydroxy-3,4-dihydro-2H-1-benzopyran-2-carboxamide], the EC50 lay within 50 to 250 nM.
